This experiment has as its system 4T1-luciferase cells. In words: In situ model of breast cancer in nude mouse, lung metastasis by in vivo imaging (Example 7). Details: species or system nude mice. The following applies: 20 mg/kg and 1 mg/kg tail vein, twice a day, 21 days; P<0.01. The protocol: 4) An in situ breast cancer model is constructed by in situ inoculating nude mice with 4T1 cells which are stably transfected with Luciferase, and the number of metastatic tumors on the lung is detected by in vivo imaging system. Such a model mimics the occurrence and metastasis of breast cancer.
The ability of (S)2-(4′-methyl-3′-nitrobenzoylamino)-3-phenylpropionic acid for inhibiting tumor metastasis in vivo was tested by in situ model of breast cancer in nude mouse.
1) Mice grouping: Nude female mice of SPF grade, 5 weeks old, 18˜22 g, 8 mice for each group;
2) The mother liquid of (S)2-(4′-methyl-3′-nitrobenzoylamino)-3-phenylpropionic acid (TCI04) for the dosage form administrated by intravenous injection was diluted to 2 mg/mL, 0.1 mg/mL by adding sterilized water. The dosage for administration in mice was as follows, high dosage of 20 mg/kg; low dosage of 1 mg/kg. […]
3) 4T1-luciferase cells in logarithmic growth phase were digested with 0.05% typsine for 1 min, after centrifugation at 1000 rpm for 5 min, the supernatant was discarded and the cells were resuspended and counted. […]
5) After the completion of the administration, the mice were detected by in vivo imaging system for the condition of tumor metastasis and immediately sacrificed; the lungs alone were detected by the in vivo imaging system for the light intensity to determine the number of tumor metastasis.

For the compound `Cc1ccc(C(=O)N[C@@H](Cc2ccccc2)C(=O)O)cc1[N+](=O)[O-]` [(S)2-(4′-methyl-3′-nitrobenzoylamino)-3-phenylpropionic acid], the “light intensity of the whole lung vs negative control” value is on record as “significantly weaker than the negative control”.

Values taken from patent US10512627B2, “Anti-tumor compound and the medical use thereof” (Tianjin Medical University Cancer Institute and Hospital, priority 2014, dated 2019).
